Assay results published in patent US20260126382A1, “INTELLIGENT NIR II PHOTOTHERMAL AND COLORIMETRIC SENSING TECHNOLOGY” (Nanyang Technological University, priority 2022, published 2026).

How the values were obtained:
[1] = Peroxidase-like (POD-like) activity in the TMB+H2O2 system, Abs1064 nm; format: biochemical; details: TMB+H2O2 system with HRP, FIG. 11
[2] = natural enzyme, from literature; cited from earlier work
myrosinase (Myr) [3] = test: Effect of interfering substances (metal ions, small molecules, amino acids, EDTA) on the Myr test system; format: biochemical; details: interfering substances 1 mM, FIG. 17C
Protocol: (§1) For Myr detection, Sin (2.5 mM, 30 μL) and GOx (5 mg/mL, 10 μL, according to previous literature (Jiang, C. et al., RSC Adv. 2017, 7, 44463-44469)) were mixed with different concentrations of Myr first, and reacted at 37° C. for 30 min to generate H2O2. Then, an acetate buffer containing TMB and AuNPs was added into the aforementioned solution, incubated at 45° C. for 25 min, and cooled to room temperature. Afterward, the solution was used for the analysis of Myr enzyme activity.
For the anti-interference experiments discussed below, Sin (2.5 mM, 30 μL) and GOx (5 mg/mL, 10 μL) were mixed with different interfering substances first and reacted at 37° C. for 30 min. Then, acetate buffer containing TMB and AuNPs were added into the above solution, incubated at 45° C. for 25 min, and cooled to room temperature, and afterwards, the solution was used for photothermal and colorimetric analysis.

myrosinase (Myr) [4] = test: Effect of Sin concentration on the Sin+Myr+GOx+TMB+AuNPs system; format: biochemical; details: Myr 0.5 mg/mL, GOx 0.5 mg/mL, TMB 1.5 mM, AuNPs 0.45 nM
Protocol: as §1
Before testing different Myr concentrations, it is necessary to determine the maximum Sin concentration that can be applied. FIG. 16 illustrates that when the concentration of Sin exceeds 0.75 mM, the working efficiency decreases and the blue color becomes faint because excess Sin binds to the active regulatory sites of Myr, thereby inhibiting the activity of Myr to hydrolyze Sin. As a result, 0.75 mM was selected as the maximum Sin concentration for detecting commercial Myr at varying concentrations and constructing a standard curve. As shown in FIGS. 17A-B and 18, when Sin was present at a concentration of 0.75 mM, Myr was detectable in the range of 0-345 mU/mL, and its linear detection range in the absorption spectrum was 0 to 172.5 mU/mL with an LOD of 2.96 mU/mL.

Compound: horseradish peroxidase [HRP]
- slope of Abs1064 nm vs. c(HRP) [1]: 0.04644 nM⁻¹
- temperature beyond which activity is lost [2]: exceeds 50 °C

Compound: O=C1O[C@H]([C@@H](O)CO)C(O)=C1O [Vc, Vitamin C]
- inhibitory effect on Myr activity (myrosinase (Myr) [3]): inhibit Myr activity

Compound: N[C@@H](CS)C(=O)O [Cys]
- inhibitory effect on Myr activity (myrosinase (Myr) [3]): inhibit Myr activity

Compound: N[C@@H](CCC(=O)N[C@@H](CS)C(=O)NCC(=O)O)C(=O)O [GSH]
- inhibitory effect on Myr activity (myrosinase (Myr) [3]): inhibit Myr activity

Compound: C=CC/C(=N/OS(=O)(=O)[O-])S[C@@H]1OC(CO)[C@@H](O)C(O)C1O.[K+] (stereo partly shown) [Sin, Sinigrin]
- Sin concentration above which working efficiency decreases (excess Sin inhibiting the activity of Myr) (myrosinase (Myr) [4]): exceeds 0.75 mM

Compound: [Cu+2] [Cu^2+]
- inhibitory effect on Myr activity (myrosinase (Myr) [3]): strongest inhibitory effect
